Experimental data from patent US11566007B2, “Ras inhibitors” (Revolution Medicines, Inc., priority 2019, dated 2023).

Legend:
KRAS Q61H = KRAS Q61H (Homo sapiens (Human), UniProt P01116+P62937, Q61H); assay: Ras-Raf (BRAF RBD) disruption / FRET / MOA assay, KRAS Q61H; assay type: biochemical; details: Ras-Raf disruption/FRET/MOA assay; class symbols; read-out: KRAS Q61H FRET data IC50
Outline: (§1)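 TR-FRET disruption of nucleotide-loaded Ras binding to BRAF RBD via compound-driven ternary complex with cyclophilin A. Compound as 10-point 3-fold series from 30 μM final, 3 h at 25° C, then anti-His Eu-W1024 (10 nM) and anti-GST allophycocyanin (50 nM) for 1.5 h. IC50 from decreased FRET ratio versus DMSO.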

K-Ras G13C = K-Ras G13C (Homo sapiens (Human), UniProt P01116+P62937, G13C); assay: Ras-Raf (BRAF RBD) disruption / FRET / MOA assay, KRAS G13C; assay type: biochemical; details: KRAS G13C; Ras-Raf disruption/FRET/MOA assay; read-out: IC50* KRAS G13C FRET data
Outline: (§2)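 Ras:RAF disruption was scored as a fall in TR-FRET ratio relative to DMSO. Compound ranged in 3-fold steps over 10 points from 30 μM final; incubation ran 3 h at 25° C, detection antibodies a further 1.5 h. Reported as IC50.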

KRAS G13D = KRAS G13D (Homo sapiens (Human), UniProt P01116+P62937, G13D); assay: Ras-Raf (BRAF RBD) disruption / FRET / MOA assay, KRAS G13D; assay type: biochemical; details: read-out: IC50* KRAS G13D FRET data
Outline: as §2

KRAS G12V = KRAS G12V (Homo sapiens (Human), UniProt P01116+P62937, G12V); assay: Ras-Raf (BRAF RBD) disruption / FRET / MOA assay, KRAS G12V; assay type: biochemical; details: read-out: IC50* KRAS G12V FRET data
Outline: as §2

NRAS WT = NRAS WT (Homo sapiens (Human), UniProt P01111+P62937); assay: Ras-Raf (BRAF RBD) disruption / FRET / MOA assay, NRAS WT; assay type: biochemical; details: read-out: IC50* NRAS WT FRET data
Outline: as §1

K-Ras G12C = K-Ras G12C (Homo sapiens (Human), UniProt P01116+P62937, G12C); assay: Ras-Raf (BRAF RBD) disruption / FRET / MOA assay, KRAS G12C; assay type: biochemical; details: KRAS G12C; Ras-Raf disruption/FRET/MOA assay; read-out: IC50* KRAS G12C FRET data
Outline: as §2

NCI-H358 (K-Ras G12C) = assay: CellTiter-Glo cell viability assay, NCI-H358; assay type: cell-based, human; details: Homo sapiens, NCI-H358, 120 h, NCI-H358, 5-day treatment; class symbols; read-out: Additional H358 Cell Viability assay data (K-Ras G12C, IC50)
Outline: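 Luminescent viability readout on day 5 after direct compound addition to plated cells; plates sat ~30 min at room temperature before reading. Values expressed as percent of mean DMSO signal, curves fit with a four-parameter logistic model.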

KRAS WT = KRAS WT (Homo sapiens (Human), UniProt P01116+P62937); assay: Ras-Raf (BRAF RBD) disruption / FRET / MOA assay, KRAS WT; assay type: biochemical; details: read-out: IC50* KRAS WT FRET data
Outline: as §2

NRAS G12C = NRAS G12C (Homo sapiens (Human), UniProt P01111+P62937, G12C); assay: Ras-Raf (BRAF RBD) disruption / FRET / MOA assay, NRAS G12C; assay type: biochemical; details: read-out: IC50* NRAS G12C FRET data
Outline: as §2

NRAS Q61R = NRAS Q61R (Homo sapiens (Human), UniProt P01111+P62937, Q61R); assay: Ras-Raf (BRAF RBD) disruption / FRET / MOA assay, NRAS Q61R; assay type: biochemical; details: NRAS Q61R; Ras-Raf disruption/FRET/MOA assay; read-out: IC50* NRAS Q61R FRET data
Outline: as §1

KRAS Q61H, sequence (P01116-2 other isoform, or with tags, fused parts or gaps Q61H): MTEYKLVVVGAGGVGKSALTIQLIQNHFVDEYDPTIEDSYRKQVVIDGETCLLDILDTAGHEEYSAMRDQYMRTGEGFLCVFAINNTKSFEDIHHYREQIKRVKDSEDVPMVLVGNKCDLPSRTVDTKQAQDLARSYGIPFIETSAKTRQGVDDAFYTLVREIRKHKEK
KRAS Q61H, sequence (P62937 whole entry): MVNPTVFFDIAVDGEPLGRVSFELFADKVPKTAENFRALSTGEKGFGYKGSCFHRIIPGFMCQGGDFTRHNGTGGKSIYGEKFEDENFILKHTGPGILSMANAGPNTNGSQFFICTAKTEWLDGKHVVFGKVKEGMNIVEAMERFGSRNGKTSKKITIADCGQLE
K-Ras G12C, sequence (P01116-2 other isoform, or with tags, fused parts or gaps G12C): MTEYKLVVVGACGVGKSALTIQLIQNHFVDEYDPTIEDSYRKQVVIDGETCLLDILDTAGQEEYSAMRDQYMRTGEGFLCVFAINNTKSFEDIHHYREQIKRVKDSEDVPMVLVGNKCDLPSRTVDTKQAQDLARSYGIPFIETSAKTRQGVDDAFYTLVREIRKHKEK
K-Ras G12C, sequence (P62937 whole entry): as the sequence (P62937 whole entry) above
NRAS G12C, sequence (P01111 whole entry G12C): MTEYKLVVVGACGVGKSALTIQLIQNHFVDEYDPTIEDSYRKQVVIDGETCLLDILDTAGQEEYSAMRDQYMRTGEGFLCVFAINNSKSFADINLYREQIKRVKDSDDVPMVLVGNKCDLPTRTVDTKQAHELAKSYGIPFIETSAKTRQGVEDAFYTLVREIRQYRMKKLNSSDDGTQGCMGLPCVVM
NRAS G12C, sequence (P62937 whole entry): as the sequence (P62937 whole entry) above
KRAS G12V, sequence (P01116-2 other isoform, or with tags, fused parts or gaps G12V): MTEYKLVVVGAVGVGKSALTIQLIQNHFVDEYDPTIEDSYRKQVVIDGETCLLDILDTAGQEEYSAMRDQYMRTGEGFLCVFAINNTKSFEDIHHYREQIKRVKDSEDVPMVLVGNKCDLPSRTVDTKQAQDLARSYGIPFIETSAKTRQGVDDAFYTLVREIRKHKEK
KRAS G12V, sequence (P62937 whole entry): as the sequence (P62937 whole entry) above
KRAS WT, sequence (P01116-2 other isoform, or with tags, fused parts or gaps): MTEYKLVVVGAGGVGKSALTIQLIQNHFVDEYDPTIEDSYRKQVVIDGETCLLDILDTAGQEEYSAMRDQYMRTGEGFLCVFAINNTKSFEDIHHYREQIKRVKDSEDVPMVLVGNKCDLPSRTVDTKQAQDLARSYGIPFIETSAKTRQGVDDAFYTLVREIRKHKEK
KRAS WT, sequence (P62937 whole entry): as the sequence (P62937 whole entry) above
NRAS WT, sequence (P01111 whole entry): as the sequence (P01111 whole entry G12C) above, with C12G counted along it
NRAS WT, sequence (P62937 whole entry): as the sequence (P62937 whole entry) above
NRAS Q61R, sequence (P01111 whole entry Q61R): as the sequence (P01111 whole entry G12C) above, with C12G, Q61R counted along it
NRAS Q61R, sequence (P62937 whole entry): as the sequence (P62937 whole entry) above
KRAS G13D, sequence (P01116-2 other isoform, or with tags, fused parts or gaps G13D): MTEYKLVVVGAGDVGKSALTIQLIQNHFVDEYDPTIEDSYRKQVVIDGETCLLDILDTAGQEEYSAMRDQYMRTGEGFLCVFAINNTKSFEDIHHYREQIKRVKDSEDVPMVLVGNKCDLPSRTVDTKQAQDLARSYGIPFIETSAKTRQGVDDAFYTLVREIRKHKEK
KRAS G13D, sequence (P62937 whole entry): as the sequence (P62937 whole entry) above
K-Ras G13C, sequence (P01116-2 other isoform, or with tags, fused parts or gaps G13C): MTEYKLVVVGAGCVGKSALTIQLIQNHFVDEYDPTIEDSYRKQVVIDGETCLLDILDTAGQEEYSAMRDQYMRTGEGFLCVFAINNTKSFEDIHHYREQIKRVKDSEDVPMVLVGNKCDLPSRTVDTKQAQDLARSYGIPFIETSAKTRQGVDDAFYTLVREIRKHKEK
K-Ras G13C, sequence (P62937 whole entry): as the sequence (P62937 whole entry) above

Row | Compound | IC50 (KRAS Q61H) [nM] | IC50 (K-Ras G13C) [nM] | IC50 (KRAS G13D) [nM] | IC50 (KRAS G12V) [nM] | IC50 (NRAS WT) [nM] | IC50 (K-Ras G12C) [nM] | IC50 (NCI-H358 (K-Ras G12C)) [nM] | IC50 (KRAS WT) [nM] | IC50 (NRAS G12C) [nM] | IC50 (NRAS Q61R) [nM]
1 | C=CC(=O)Nc1ccc(C(=O)N(C)[C@H](C(=O)N[C@H]2Cc3cc(O)cc(c3)-c3ccc4c(c3)c(c(-c3cccnc3[C@H](C)OC)n4CC)CC(C)(C)COC(=O)[C@@H]3CCCN(N3)C2=O)C(C)C)nc1 (atropisomer, axis not shown) [Example A252] | 100 to 1000 | < 10 | 100 to 1000 | 100 to 1000 | 100 to 1000 | 10 to 100 | 10 to 100 | 100 to 1000 | 10 to 100 | 1000 to 10000
2 | C=CC(=O)N1CCN(C(=O)N(C)[C@H](C(=O)N[C@H]2Cc3cc(O)cc(c3)-c3ccc4c(c3)c(c(-c3cccnc3[C@H](C)OC)n4CC)CC(C)(C)COC(=O)[C@@H]3CCCN(N3)C2=O)C(C)C)CC1 (atropisomer, axis not shown) [Example A262] | 10 to 100 | < 10 | 10 to 100 | 10 to 100 | 10 to 100 | 10 to 100 | 10 to 100 | 10 to 100 | 10 to 100 | 100 to 1000
3 | C=CS(=O)(=O)N1CC2(CCN([C@H](C(=O)N[C@H]3Cc4cc(O)cc(c4)-c4ccc5c(c4)c(c(-c4cccnc4[C@H](C)OC)n5CC)CC(C)(C)COC(=O)[C@@H]4CCCN(N4)C3=O)C(C)C)C2=O)C1 (atropisomer, axis not shown) [Example A297] | < 10 | < 10 | 100 to 1000 | 100 to 1000 | 10 to 100 | 10 to 100 | 10 to 100 | 10 to 100 | < 10 | 100 to 1000
4 | C=CC(=O)N1CC[C@H](C(=O)N(C)[C@H](C(=O)N[C@H]2Cc3cccc(c3)-c3ccc4c(c3)c(c(-c3cccnc3[C@H](C)OC)n4CC(F)(F)F)CC(C)(C)COC(=O)[C@@H]3CCCN(N3)C2=O)C(C)C)C1 (atropisomer, axis not shown) [Example A332] | 100 to 1000 | 100 to 1000 | 1000 to 10000 | 1000 to 10000 | 1000 to 10000 | 10 to 100 | < 10 | 1000 to 10000 | 10 to 100 | 1000 to 10000
5 | C=CC(=O)N1CC[C@H](C(=O)N(C)[C@H](C(=O)N[C@H]2Cc3cc(F)cc(c3)-c3ccc4c(c3)c(c(-c3cccnc3[C@H](C)OC)n4CC)CC(C)(C)COC(=O)[C@@H]3CCCN(N3)C2=O)C(C)C)C1 (atropisomer, axis not shown) [Example A342] | 100 to 1000 | 100 to 1000 | 1000 to 10000 | 1000 to 10000 | 1000 to 10000 | 10 to 100 | 10 to 100 | 1000 to 10000 | 100 to 1000 | 1000 to 10000
6 | CCn1c(-c2cccnc2[C@H](C)OC)c2c3cc(ccc31)-c1cccc(c1)C[C@H](NC(=O)[C@@H](COC1CN(C(=O)C#CC(C)(C)N3CCC3)C1)C(C)C)C(=O)N1CCC[C@H](N1)C(=O)OCC(C)(C)C2 (atropisomer, axis not shown) [Example A346] | 1000 to 10000 | 1000 to 10000 | > 10000 | 1000 to 10000 | > 10000 | < 10 | < 10 | > 10000 | 10 to 100 | > 10000
7 | CO[C@@H](C)c1ncccc1-c1c2c3cc(ccc3n1CC(F)(F)F)-c1cc(F)cc(c1)C[C@H](NC(=O)[C@@H](COC1CN(C(=O)C#CC(C)(C)N(C)C)C1)C(C)C)C(=O)N1CCC[C@H](N1)C(=O)OCC(C)(C)C2 (atropisomer, axis not shown) [Example A348] | 1000 to 10000 | 1000 to 10000 | > 10000 | 1000 to 10000 | 1000 to 10000 | < 10 | < 10 | 1000 to 10000 | < 10 | > 10000
8 | CCn1c(-c2cccnc2[C@H](C)OC)c2c3cc(ccc31)-c1cccc(c1)C[C@H](NC(=O)[C@H](C(C)C)N1CO[C@]3(CCN(C(=O)C#CC(C)(C)N4CCC4)C3)C1=O)C(=O)N1CCC[C@H](N1)C(=O)OCC(C)(C)C2 (atropisomer, axis not shown) [Example A351] | 100 to 1000 | 100 to 1000 | 1000 to 10000 | 1000 to 10000 | 100 to 1000 | < 10 | < 10 | 100 to 1000 | < 10 | 1000 to 10000
9 | C=CC(=O)N1CC[C@@]2(CCN(C(=O)N(C)[C@H](C(=O)N[C@H]3Cc4nc(cs4)-c4ccc5c(c4)c(c(-c4cccnc4[C@H](C)OC)n5CC)CC(C)(C)COC(=O)[C@@H]4CCCN(N4)C3=O)C(C)C)C2)C1 (atropisomer, axis not shown) [Example A367] | 10 to 100 | 100 to 1000 | 100 to 1000 | 100 to 1000 | 10 to 100 | 10 to 100 | 10 to 100 | 10 to 100 | 10 to 100 | 10 to 100
10 | C=CC(=O)N(C)CC1CN(C(=O)N(C)[C@H](C(=O)N[C@H]2Cc3nc(cs3)-c3ccc4c(c3)c(c(-c3cccnc3[C@H](C)OC)n4CC)CC(C)(C)COC(=O)[C@@H]3CCCN(N3)C2=O)C(C)C)C1 (atropisomer, axis not shown) [Example A368] | 10 to 100 | 100 to 1000 | 100 to 1000 | 10 to 100 | 10 to 100 | 10 to 100 | < 10 | 100 to 1000 | 10 to 100 | 10 to 100
11 | C=CC(=O)N1CC[C@]2(C1)OCN([C@H](C(=O)N[C@H]1Cc3cccc(c3)-c3ccc4c(c3)c(c(-c3cccnc3[C@H](C)OC)n4CC)CC(C)(C)COC(=O)[C@@H]3CCCN(N3)C1=O)C(C)C)C2=O (atropisomer, axis not shown) [Example A371] | 1000 to 10000 | 100 to 1000 | > 10000 | > 10000 | 1000 to 10000 | 10 to 100 | < 10 | 1000 to 10000 | 10 to 100 | > 10000
